Literature values as cited in US20110262436A1, “TREATMENT METHOD” (Genentech, Inc., priority 2008, published 2011).

System: advanced, treatment-refractory NSCLC
Conditions: phase III trial; cited from earlier work

SMILES: C#Cc1cccc(Nc2ncnc3cc(OCCOC)c(OCCOC)cc23)c1 [erlotinib, N-(3-ethynylphenyl)-6,7-bis(2-methoxyethoxy)-4-quinazolinamine]
- Survival, erlotinib monotherapy: significantly prolonged survival
